Data as given in ChEMBL document CHEMBL5705902, “Role of G Protein-Coupled Receptor Kinases 2 and 3 in μ-Opioid Receptor Desensitization and Internalization” (Mol Pharmacol, 2015).
The source made the active and inactive calls. No cut-off for these calls is given here.

Tests used:
[1] = target: Mu-type opioid receptor (Rattus norvegicus) (UniProt P33535); assay: Inhibition of MOPr desensitization in wistar rat LC neuron cells assessed as reduction in the DAMGO induced desensitization incubated for 15 mins in the presence of Y-27632; type: functional, cell-based
Chain of Mu-type opioid receptor (Rattus norvegicus) (P33535 whole entry): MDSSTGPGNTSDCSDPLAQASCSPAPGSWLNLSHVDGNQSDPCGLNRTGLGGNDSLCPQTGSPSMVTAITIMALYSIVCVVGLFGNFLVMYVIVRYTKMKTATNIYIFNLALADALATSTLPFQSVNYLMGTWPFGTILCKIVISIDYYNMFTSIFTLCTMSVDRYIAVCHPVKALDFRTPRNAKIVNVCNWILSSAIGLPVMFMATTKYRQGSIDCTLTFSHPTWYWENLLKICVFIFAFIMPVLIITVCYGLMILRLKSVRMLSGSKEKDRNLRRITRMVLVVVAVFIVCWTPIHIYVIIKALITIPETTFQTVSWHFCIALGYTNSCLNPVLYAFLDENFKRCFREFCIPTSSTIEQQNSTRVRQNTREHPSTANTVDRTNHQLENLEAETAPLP

[2] = target: Mu-type opioid receptor (Rattus norvegicus) (UniProt P33535); assay: Inhibition of MOPr desensitization in wistar rat LC neuron cells assessed as reduction in the DAMGO induced desensitization incubated for 15 mins in the presence of GSK650394; type: functional, cell-based

Structure (SMILES) | inhibition [1] | inhibition [2]
O=C(O)c1ccc(-c2c[nH]c3ncc(-c4ccccc4)cc23)cc1C1CCCC1 | inactive | 
C[C@@H](N)[C@H]1CC[C@H](C(=O)Nc2ccncc2)CC1 |  | inactive
